{"source": "paper PMC10518255", "about": "“A first-in-class pan-lysyl oxidase inhibitor impairs stromal remodeling and enhances gemcitabine response and survival in pancreatic cancer” (Nature Cancer, 2023)", "key": {"[1]": {"assay": "Plasma concentration profile after oral PXS-5505 30 mg/kg (Extended Data Fig. 3f)", "format": "in vivo, mice", "conditions": "for Plasma concentration: mice, individual replicates"}, "[2]": {"molecular_target": "all lysyl oxidase family members", "assay": "Lysyl oxidase enzymatic activity, fluorescence-based assay, IC50 range over the family", "format": "biochemical, human", "conditions": "range over the five family members; read-out: IC50 values against all lysyl oxidase family members", "protocol": "In characterizing PXS-5505, the half-maximum inhibitory concentration (IC50) values for each of the lysyl oxidase family members were determined by measuring enzymatic activity using a fluorescence-based assay."}, "Plasma protein binding": {"assay": "Plasma protein binding", "format": "in vitro ADME", "conditions": "In vitro (human), read-out: Plasma protein binding, % bound (converted)"}, "KPC CAFs": {"tested_on": "KPC CAFs", "assay": "3D organotypic matrix contraction assay", "format": "cell-based, mouse", "set-up": "measured area of matrices: unit not given here", "conditions": "for measured area of matrices: per replicate, n = 3", "protocol": "(§1) Fig. 3 PXS-5505 inhibition of CAF remodeling in vitro. a, Quantitative PCR with reverse transcription (qRT–PCR) showing in vitro comparison of KPC CAF relative expression of lysyl oxidase family members compared to KPC CCs from the same model (n = 3 biologically independent samples). Comparisons were determined by 2^–∆∆Ct approach. b, Representative images of 3D organotypic matrix contraction assay at days 2, 6 and 12 in the absence (gray) or presence (pink) of PXS-5505 (30 µM). Scale bars, 5 mm. Comparison of measured area of matrices between control and PXS-5505 treatment groups over time (n = 3 technical samples examined over three biologically independent samples). Data are mean ± s.d. c, Concentration of immature divalent DHLNL and mature trivalent Pyr collagen crosslinks determined by LC–MS from control and PXS-5505-treated organotypic matrices at day 12 (n = 3 technical samples examined over two biologically independent samples). Data are mean ± s.d. […] Data are presented as mean ± s.d. […] Comparison of number of CCs invaded per field of view (FOV) as determined by H&E and PanCK staining (nine images taken from three technical samples from each of three biologically independent contracted matrices), normalized to control. Data are mean ± s.d. Scale bars, 100 μm. […] Source data\nHigh-purity rat tail collagen for 3D organotypic assays was acid extracted following previously published methodology. The 12-day organotypic assays were carried out as described previously. In brief, 2 × 10^5 KPC CAFs were embedded in 2.5 ml 1.5 mg ml^−1 rat tail collagen and allowed to remodel for 12 days in a six-well plate in DMEM supplemented with 10% FBS and 1% penicillin–streptomycin in 21% O2/5% CO2 (Extended Data Fig. 4a). For human pancreatic cancer CAFs, 3.45 × 10^5 cells were embedded into 1.25 ml 1.5 mg ml^−1 rat tail collagen and allowed to remodel for 12 days in a 12-well plate in IMDM supplemented with 4 mM glutamine and 10% FBS in 21% O2/5% CO2.\nExtended Data Fig. 4 PXS-5505 inhibits collagen cross-linking by PDAC CAFs in vitro resulting in decreased cancer cell invasion. a. Schematic of organotypic matrix remodeling assay whereby CAFs are embedded into a 3D collagen matrix and growth media supplemented with or without PXS-5505 to inhibit lysyl oxidase family activity b. Chemical structures of lysyl oxidase family catalyzed hydroxyallysine or allysine residues and the subsequent divalent and trivalent bonds that are formed that can be quantified by mass spectrometry. c. Representative images of 3D organotypic matrix contraction by human pancreatic cancer CAFs at days 2, 6 and 12 in the absence (gray) and presence (pink) of PXS-5505 (30 µM). Scale bars = 5 mm. […] Data presented as mean values +/− SD. d. […] Data presented as mean values +/− SD. Relative fold expression of LOXL family members compared to LOX were determined by 2^–∆∆Ct approach. f. Schematic of cancer cell invasion in a 3D organotypic matrix assay whereby cancer cells are seeded to the surface of a remodeled collagen plug and placed at an air–liquid interface and allowed to invade into the remodeled matrix. […] Scale bars = 100 μm. g. […] Representative images of 3D organotypic matrix contraction assay at days 2, 6 and 12 of control (gray) and presence of PXS-5120 (blue) and PXS-5505 (pink). Scale bars = 5 mm. Comparison of measured area of matrices between control, PXS-5120 and PXS-5505 treatment groups (n = 3) over time. i. […] Representative images of invasion of KPC cancer cells into a contracted organotypic matrix as determined by H&E staining. […] Source data"}, "[3]": {"tested_on": "KPC CAF remodeled 3D collagen matrices", "assay": "Matrix stiffness by unconfined compression testing of organotypic matrices", "format": "cell-based, mouse", "conditions": "day 12, PXS-5505 30 µM, normalized to control, individual samples", "protocol": "as §1, with “data […]” for “data”"}}, "note": "Where “and” joins values, the source holds several entries; their conditions need not be identical. Identical values can stand only once."}
{"smiles": "Cl.Cl.NC/C=C(\\F)CS(=O)(=O)c1cccc2cccnc12.O", "note": "[PXS-5505, (Z)-3-fluoro-4-(quinolin-8-ylsulfonyl)but-2-en-1-amine dihydrochloride monohydrate]", "values": [{"measurement": "Plasma concentration", "setting": "[1]; oral 5 mg/kg, time 0.5 hrs, 5 mg/kg", "value": "424 and 270.3 and 246.9"}, {"measurement": "Plasma concentration", "setting": "[1]; oral 5 mg/kg, time 1 hrs, 5 mg/kg", "value": "183.1 and 190 and 142.6"}, {"measurement": "Plasma concentration", "setting": "[1]; oral 5 mg/kg, time 2 hrs, 5 mg/kg", "value": "40.1 and 93 and 39.5"}, {"measurement": "Plasma concentration", "setting": "[1]; oral 5 mg/kg, time 4 hrs, 5 mg/kg", "value": "10.2 and 13.8 and 3.1"}, {"measurement": "Plasma concentration", "setting": "[1]; oral 5 mg/kg, time 8 hrs, 5 mg/kg", "value": "3.2 and 2.1 and 1.3"}, {"measurement": "Plasma concentration", "setting": "[1]; oral 10 mg/kg, time 0.5 hrs, 10 mg/kg", "value": "1283.4 and 374.2 and 656.3"}, {"measurement": "Plasma concentration", "setting": "[1]; oral 10 mg/kg, time 1 hrs, 10 mg/kg", "value": "814.4 and 337 and 493.5"}, {"measurement": "Plasma concentration", "setting": "[1]; oral 10 mg/kg, time 2 hrs, 10 mg/kg", "value": "138.5 and 336.7 and 262.8"}, {"measurement": "Plasma concentration", "setting": "[1]; oral 10 mg/kg, time 4 hrs, 10 mg/kg", "value": "113.3 and 25.7 and 30.1"}, {"measurement": "Plasma concentration", "setting": "[1]; oral 10 mg/kg, time 8 hrs, 10 mg/kg", "value": "14.4 and 5.9 and 4.9"}, {"measurement": "Plasma concentration", "setting": "[1]; oral 30 mg/kg, time 0.5 hrs, 30 mg/kg", "value": "3584.3 and 3445.6 and 4112.8"}, {"measurement": "Plasma concentration", "setting": "[1]; oral 30 mg/kg, time 1 hrs, 30 mg/kg", "value": "3340.5 and 2725.9 and 2974.4"}, {"measurement": "Plasma concentration", "setting": "[1]; oral 30 mg/kg, time 2 hrs, 30 mg/kg", "value": "1379.4 and 1690.4 and 1354.7"}, {"measurement": "Plasma concentration", "setting": "[1]; oral 30 mg/kg, time 4 hrs, 30 mg/kg", "value": "160.9 and 186.3 and 206.9"}, {"measurement": "Plasma concentration", "setting": "[1]; oral 30 mg/kg, time 8 hrs, 30 mg/kg", "value": "13.1 and 14.5 and 13.6"}, {"measurement": "half-life", "setting": "[1]; mouse, plasma, single oral dose 30 mg kg−1, read-out: calculated half-life (plasma) (converted)", "value": 1, "unit": "h"}, {"measurement": "IC50", "setting": "[2]", "value": "200 to 5000", "unit": "nM"}, {"measurement": "fraction unbound", "setting": "Plasma protein binding", "value": 0.78}, {"measurement": "matrix contraction", "setting": "KPC CAFs; KPC CAFs, PXS-5505 30 µM, days 2, 6 and 12", "value": "no macroscopic effect on matrix contraction"}, {"measurement": "measured area of matrices", "setting": "KPC CAFs; time 0 (unit of time not given)", "value": 9.616}, {"measurement": "measured area of matrices", "setting": "KPC CAFs; time 1 (unit of time not given)", "value": 9.616}, {"measurement": "measured area of matrices", "setting": "KPC CAFs; time 2 (unit of time not given)", "value": "9.561 and 9.616 (2×)"}, {"measurement": "measured area of matrices", "setting": "KPC CAFs; time 3 (unit of time not given)", "value": "9.0213 and 9.561 and 9.616"}, {"measurement": "measured area of matrices", "setting": "KPC CAFs; time 4 (unit of time not given)", "value": "6.466 and 5.808 and 8.601"}, {"measurement": "measured area of matrices", "setting": "KPC CAFs; time 5 (unit of time not given)", "value": "4.597 and 3.696 and 6.971"}, {"measurement": "measured area of matrices", "setting": "KPC CAFs; time 6 (unit of time not given)", "value": "3.299 and 2.6 and 5.471"}, {"measurement": "measured area of matrices", "setting": "KPC CAFs; time 7 (unit of time not given)", "value": "2.954 and 2.216 and 4.409"}, {"measurement": "measured area of matrices", "setting": "KPC CAFs; time 8 (unit of time not given)", "value": "2.6 and 1.886 and 3.595"}, {"measurement": "measured area of matrices", "setting": "KPC CAFs; time 9 (unit of time not given)", "value": "1.96 and 1.5386 and 2.216"}, {"measurement": "measured area of matrices", "setting": "KPC CAFs; time 10 (unit of time not given)", "value": "1.327 and 1.266 and 1.583"}, {"measurement": "measured area of matrices", "setting": "KPC CAFs; time 11 (unit of time not given)", "value": "1.149 and 1.168 and 1.41"}, {"measurement": "measured area of matrices", "setting": "KPC CAFs; time 12 (unit of time not given)", "value": "1.075 and 1.112 and 1.188"}, {"measurement": "matrix stiffness by unconfined compression testing", "setting": "[3]", "value": "0.918 and 0.779 and 0.916 and 0.962 and 0.835 and 0.748 and 0.939 and 0.975"}]}
